This note sets out measurements from PubChem BioAssay (NCI).

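Assay format: 96-well plates, 48-hour exposure. GI50: concentration for 50% inhibition of growth. TGI is the concentration that stops growth completely.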

Some test systems named below: HOP-92 NSCLC; IGROV1 ovarian; SN12C renal; SR leukemia; HOP-62 NSCLC; HCT-116 colon; COLO 205 colon; HCC-2998 colon; NCI/ADR-RES ovarian; MDA-MB-231 breast.
What all share (test): NCI-60 cell line screen, 48 h

Turning to `CC12CCCC(C#N)(C1)OC2=O` (centres undefined), the TGI in the test with HOP-92 NSCLC, with IGROV1 ovarian, with SN12C renal, in the test with SR leukemia, with HOP-62 NSCLC and with HCT-116 colon was greater than 100 µM each time.

Regarding `CCc1cccc(C)c1N1C(=O)C(=O)C(c2nc3ccccc3o2)/C(=N/NC(=S)NN)C1=O` (centres undefined), the TGI in the test on HOP-92 NSCLC, in the test on IGROV1 ovarian, in the test on SN12C renal, with HOP-62 NSCLC, in the test with COLO 205 colon and in the test on HCT-116 colon was greater than 100 µM throughout.

`O=C(CN(Cc1ccccc1)Cc1ccccc1)N1CCc2c([nH]c3ccccc23)C1c1cccnc1` (centres undefined): the TGI with HOP-92 NSCLC was 12.8 µM; in the test with IGROV1 ovarian, greater than 100 µM; in the test with SN12C renal it was 8.64 µM; with SR leukemia it was 30.6 µM; with HCC-2998 colon, greater than 100 µM; with HOP-62 NSCLC, greater than 100 µM. Moreover, the TGI in the test on HCT-116 colon is 16.2 µM.

Consider `O=C[C@]12CC=C3OC4OC5(CCCCC5)OC4[C@H]3[C@H]1C(=O)C=CC2=O` (some centres undefined), for which the TGI with SN12C renal is greater than 100 µM; with SR leukemia it was 7.93 µM; in the test with HCC-2998 colon, 90.8 µM; with HOP-62 NSCLC it was greater than 100 µM; in the test on HCT-116 colon, 38.4 µM.

For the compound `N.N.N.N.N.N#Cc1nn[n-]n1.[Cl-].[Co+3]`, the GI50 with HOP-92 NSCLC, in the test on IGROV1 ovarian, in the test with SN12C renal, in the test on SR leukemia, in the test on HCC-2998 colon and in the test with HOP-62 NSCLC was greater than 100 µM each time. In addition, the GI50 in the test on COLO 205 colon and with HCT-116 colon was greater than 100 µM in each case. The TGI with HOP-92 NSCLC, in the test with IGROV1 ovarian, with SN12C renal, in the test with SR leukemia, in the test with HCC-2998 colon and in the test with HOP-62 NSCLC was greater than 100 µM throughout. In addition, the TGI with COLO 205 colon and in the test with HCT-116 colon was greater than 100 µM in each case.

In the case of `COc1cccc(CCNC(=O)CC(c2ccccc2)(c2ccccc2)c2ccccc2)c1`, the GI50 in the test on HOP-92 NSCLC is greater than 100 µM; in the test on HOP-62 NSCLC it was 59.4 µM; in the test on COLO 205 colon, 12.8 µM; in the test with NCI/ADR-RES ovarian it was 5.26 µM; in the test with HCT-116 colon it was 2.58 µM; with MDA-MB-231 breast, greater than 100 µM. For the same compound, the TGI in the test on HOP-92 NSCLC was greater than 100 µM; in the test with HOP-62 NSCLC, greater than 100 µM; in the test with COLO 205 colon it was greater than 100 µM; in the test on NCI/ADR-RES ovarian, greater than 100 µM; in the test on HCT-116 colon it was 26.7 µM; with MDA-MB-231 breast, greater than 100 µM.

For `COc1ccc(CN2C(=O)/C(=C\C(=O)c3ccc(OCCN4CCCC4)cc3)c3ccccc32)cc1`, the GI50 in the test with HOP-92 NSCLC is 2.09 µM; in the test on IGROV1 ovarian, 1.99 µM; with HCC-2998 colon it was 2.6 µM; in the test on HOP-62 NSCLC, 20.8 µM; in the test with COLO 205 colon, 2.28 µM; in the test with NCI/ADR-RES ovarian, 5.71 µM. Further, the GI50 with MDA-MB-231 breast was 2.17 µM. Besides, the TGI in the test with HOP-92 NSCLC was found to be 4.9 µM; in the test on IGROV1 ovarian, 3.78 µM; in the test on HCC-2998 colon it was 6.12 µM; in the test on HOP-62 NSCLC, 43.9 µM; with COLO 205 colon, 5.52 µM; in the test with NCI/ADR-RES ovarian, 47.7 µM. Moreover, the TGI with MDA-MB-231 breast amounted to 4.44 µM.

For `CC[O-].CC[O-].COc1ccc(C(=O)[CH-]C(C)=O)cc1OC.COc1ccc(C(=O)[CH-]C(C)=O)cc1OC.[Ti+4]`, the GI50 with HOP-92 NSCLC is 32.1 µM; with IGROV1 ovarian, 54.8 µM; in the test on SN12C renal, greater than 100 µM; in the test with SR leukemia, 31.1 µM; in the test with HCC-2998 colon, greater than 100 µM; in the test on HOP-62 NSCLC, 46.2 µM. In addition, the GI50 in the test with COLO 205 colon and in the test on HCT-116 colon was greater than 100 µM throughout. In addition, the TGI in the test with HOP-92 NSCLC was 65.9 µM; in the test with IGROV1 ovarian, greater than 100 µM; in the test with SN12C renal, greater than 100 µM; with SR leukemia, 83.4 µM; in the test with HCC-2998 colon, greater than 100 µM; in the test on HOP-62 NSCLC, greater than 100 µM. The TGI in the test on COLO 205 colon and with HCT-116 colon was greater than 100 µM in each case.

`O=CC1CCC=CC1NC(=O)OCc1ccccc1` (centres undefined): the TGI in the test on HOP-92 NSCLC, with IGROV1 ovarian, with SN12C renal, in the test with SR leukemia, in the test with HOP-62 NSCLC and in the test on COLO 205 colon was greater than 100 µM in each case. In the test on HCT-116 colon, this compound yielded a TGI greater than 100 µM.

As for `Cc1ccc2nc(Sc3c([N+](=O)[O-])ncn3C)[nH]c2c1`, the TGI in the test on HOP-92 NSCLC was 41.3 µM; in the test with IGROV1 ovarian, 65.6 µM; in the test on SN12C renal, 35.8 µM; in the test on SR leukemia, 42.2 µM; with HCC-2998 colon, 30.6 µM; in the test on HOP-62 NSCLC, greater than 100 µM. In addition, the TGI turned out to be 27.8 µM with COLO 205 colon and 53.9 µM with HCT-116 colon.

With `N#CC(C#N)=Cc1ccc(C(O)P(=O)(O)O)cc1` (centres undefined), the TGI with HOP-92 NSCLC, in the test on IGROV1 ovarian, in the test with SN12C renal, with HCC-2998 colon, with HOP-62 NSCLC and with COLO 205 colon was greater than 100 µM throughout. Besides, in the test on HCT-116 colon, the TGI is greater than 100 µM.

Take `O=C1c2cccc([N+](=O)[O-])c2C(=O)c2nccnc21`: the TGI was determined as 18.6 µM in the test with HOP-92 NSCLC; 3.64 µM in the test with SN12C renal; 5.04 µM in the test on SR leukemia; 6.17 µM with HCC-2998 colon; 3.66 µM with HCT-116 colon.

In the case of `COC(=O)C(=O)C(C#N)c1cccc(Cl)c1` (centres undefined), the TGI in the test with IGROV1 ovarian, in the test with SN12C renal, with SR leukemia, in the test on HCC-2998 colon, with HOP-62 NSCLC and in the test on COLO 205 colon was greater than 100 µM throughout. For the same compound, the TGI in the test with HCT-116 colon is greater than 100 µM.

Regarding `CC12CC/C(=N/NC(N)=O)C3C1CCCC32`, the TGI in the test with HOP-92 NSCLC, with IGROV1 ovarian, in the test on SN12C renal, in the test on SR leukemia, in the test on HCC-2998 colon and in the test on HOP-62 NSCLC was greater than 100 µM each time. Also, the TGI in the test on COLO 205 colon and in the test with HCT-116 colon was greater than 100 µM throughout.
